# In patent US20070021360A1, “Compositions, formulations and kit with anti-sense oligonucleotide and anti-inflammatory steroid and/or obiquinone for treatment of respiratory and lung disesase” (priority 2001, published 2007):
# Experiments:
# [1] = molecular target: T1, adenosine A1 receptor (Oryctolagus cuniculus, UniProt P34970); test: Adenosine A1 receptor binding ([3H]DPCPX) in airway smooth muscle membranes of treated rabbits; conditions: for A1 receptor Bmax: [3H]DPCPX
# T1 construct: Airway smooth muscle tissue was dissected from each rabbit and a membrane fraction prepared; from tissue; host or cells: rabbit airway smooth muscle, crude plasma membranes
# T1 sequence (P34970 1-328): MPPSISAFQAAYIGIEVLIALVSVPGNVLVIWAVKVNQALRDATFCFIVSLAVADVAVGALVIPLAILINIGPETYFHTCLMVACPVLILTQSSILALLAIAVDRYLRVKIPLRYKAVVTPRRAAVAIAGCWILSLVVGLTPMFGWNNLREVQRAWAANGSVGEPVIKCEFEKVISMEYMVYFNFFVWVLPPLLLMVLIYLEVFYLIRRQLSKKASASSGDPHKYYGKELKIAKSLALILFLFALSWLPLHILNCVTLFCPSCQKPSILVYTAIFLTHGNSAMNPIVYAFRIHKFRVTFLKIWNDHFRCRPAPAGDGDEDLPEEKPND
# From the text: At the conclusion of the cross-over experiment of Example 3 above, airway smooth muscle from all rabbits was quantitatively analyzed for adenosine A1 receptor number. As a control for the specificity of the anti-sense oligonucleotide, adenosine A2 receptors, which should not have been affected, were also quantified. Airway smooth muscle tissue was dissected from each rabbit and a membrane fraction prepared according to the method of Kleinstein et al. (Kleinstein, J. and Glossrnann, H., Naunyn-Schrniedeberg's Arch Pharmacol. 305: 191-200 (1978)), the relevant portion of which is hereby incorporated in its entirety by reference, with slight modifications. Crude plasma membrane preparations were stored at −70 EC until the time of assay. Protein content was determined by the method of Bradford (M. Bradford, Anal. Biochem. 72, 240-254 (1976), the relevant portion of which is hereby incorporated in its entirety by reference). Frozen plasma membranes were thawed at room temperature and were incubated with 0.2 U/ml adenosine deaminase for 30 minutes at 37 EC to remove endogenous adenosine. The binding of [^3H] DPCPX (A1 receptor-specific) or [^3H] CGS-21680 ([…]) was measured as previously described by Ali et al. (Ali, S. et al., J. Pharmacol. Exp. Ther. 268, Ara. J. Physiol 266, L271-277 (1994), the relevant portion of which is hereby incorporated in its entirety by reference). […] There was no change in adenosine A2 receptor number, as assayed by specific binding of the A2 receptor-specific agonist 2-[p-(2-carboxyethyl)-phenethylamino]-5′-(N-ethylcarboxamido) adenosine (CGS-21680). This is illustrated in Table 6 below.
# (§1) A membrane fraction was prepared according to the method of Ali et al. (Ali, S., et al., Am. J. Resp. Crit Care Med. 149: 908 (1994), the relevant section relating to the preparation of the membrane fraction is incorporated in its entirety hereby by reference). The protein content was determined by the method of Bradford and plasma membranes were incubated with 0.2 U/ml adenosine deaminase for 30 minutes at 37 EC to remove endogenous adenosine. See, Bradford, M. M. Anal. Biochem. 72, 240-254 (1976), the relevant portion of which is hereby incorporated in its entirety by reference. The binding of [^3H]DPCPX, [^3H]NPC17731, or [^3H]CGS-21680 was measured as described by Jarvis et al. See, Jarvis, M. F., et al., Pharmacol. Exptl. Ther. 251, 888-893 (1989), the relevant portion of which is fully incorporated herein by reference.
# [2] = molecular target: T2, B2 bradykinin receptor (Oryctolagus cuniculus, UniProt Q28642); test: Bradykinin B2 receptor binding ([3H]NPC 17731) in airway smooth muscle membranes of treated rabbits; parameters: species or system rabbit; conditions: for B2 receptor Bmax: [3H]NPC 17731
# T2 construct: Tissue from airway smooth muscle was dissected to primary, secondary and tertiary bronchi from rabbits; from tissue; host or cells: rabbit airway smooth muscle membranes
# T2 sequence (Q28642 1-367): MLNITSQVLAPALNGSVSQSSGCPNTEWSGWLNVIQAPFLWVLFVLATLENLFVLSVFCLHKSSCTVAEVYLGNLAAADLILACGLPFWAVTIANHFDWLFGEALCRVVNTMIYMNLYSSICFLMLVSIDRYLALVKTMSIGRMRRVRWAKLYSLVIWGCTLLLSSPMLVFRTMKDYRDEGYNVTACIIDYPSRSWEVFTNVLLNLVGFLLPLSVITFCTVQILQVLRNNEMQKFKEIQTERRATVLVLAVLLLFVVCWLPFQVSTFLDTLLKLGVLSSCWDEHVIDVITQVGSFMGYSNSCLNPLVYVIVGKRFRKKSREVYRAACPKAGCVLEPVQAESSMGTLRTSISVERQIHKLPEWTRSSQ
# Experimental: as §1
# [3] = rabbits treated with 2 mg oligo
# [4] = rabbits treated with 20 mg oligo
substance,measurement,setting,value
"5′-GTAGCAGGCGGGGATGGGGGC-3′ [HAdA1MM1, reference compound]",Kd,[1]; Kd of [3H]DPCPX in membranes of rabbits treated with 2 mg oligo,370 ± 33 pM
same,Kd,[1]; Kd of [3H]DPCPX in membranes of rabbits treated with 20 mg oligo,340 ± 27 pM
same,A1 receptor Bmax,[1]; [3],51.8 ± 3.88 fmol
same,A1 receptor Bmax,[1]; [4],52.0 ± 3.64 fmol
same,A1-Specific Binding,"[1]; airway smooth muscle membranes after cross-over experiment, mean (n = 8) ± SEM",1105 ± 48
same,Kd,[2]; Kd of [3H]NPC 17731 in membranes of rabbits treated with 2 mg oligo,380 ± 28 pM
same,Kd,[2]; Kd of [3H]NPC 17731 in membranes of rabbits treated with 20 mg oligo,350 ± 24 pM
same,B2 receptor Bmax,[2]; [3],14.6 ± 1.02 fmol
same,B2 receptor Bmax,[2]; [4],14.0 ± 1.0 fmol
